In ChEMBL document CHEMBL1201862, “PubChem BioAssay data set” (2004):
The source made the active and inactive calls.

Tests used:
[1] = molecular target: Peroxisome proliferator-activated receptor gamma/Nuclear receptor coactivator 3 (Homo sapiens, UniProt P37231); assay type: functional;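 also: agonist potency for raising coactivator recruitment to the receptor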
[2] = molecular target: Peroxisome proliferator-activated receptor gamma/Nuclear receptor coactivator 1 (Homo sapiens, UniProt P37231); assay type: functional;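 also: agonist potency as compounds enhance coactivator SRC-1 recruitment to PPARgamma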
Sequence of Peroxisome proliferator-activated receptor gamma/Nuclear receptor coactivator 1 (P37231 whole entry): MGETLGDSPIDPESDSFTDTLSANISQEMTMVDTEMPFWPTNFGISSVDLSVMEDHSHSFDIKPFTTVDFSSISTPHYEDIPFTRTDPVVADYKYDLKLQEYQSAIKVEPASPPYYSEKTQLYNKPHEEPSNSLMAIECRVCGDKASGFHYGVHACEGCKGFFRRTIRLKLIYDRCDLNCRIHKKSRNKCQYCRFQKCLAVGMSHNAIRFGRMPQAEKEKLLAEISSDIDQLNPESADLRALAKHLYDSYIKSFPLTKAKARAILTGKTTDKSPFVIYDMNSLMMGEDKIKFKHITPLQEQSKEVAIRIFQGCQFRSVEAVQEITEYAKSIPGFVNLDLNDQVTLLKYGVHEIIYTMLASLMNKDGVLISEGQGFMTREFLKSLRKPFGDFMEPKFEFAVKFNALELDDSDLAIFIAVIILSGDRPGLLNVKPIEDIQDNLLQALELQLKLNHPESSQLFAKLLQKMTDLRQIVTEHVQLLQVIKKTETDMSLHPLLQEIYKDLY
Sequence of Peroxisome proliferator-activated receptor gamma/Nuclear receptor coactivator 1 (Q15788 whole entry, further chain): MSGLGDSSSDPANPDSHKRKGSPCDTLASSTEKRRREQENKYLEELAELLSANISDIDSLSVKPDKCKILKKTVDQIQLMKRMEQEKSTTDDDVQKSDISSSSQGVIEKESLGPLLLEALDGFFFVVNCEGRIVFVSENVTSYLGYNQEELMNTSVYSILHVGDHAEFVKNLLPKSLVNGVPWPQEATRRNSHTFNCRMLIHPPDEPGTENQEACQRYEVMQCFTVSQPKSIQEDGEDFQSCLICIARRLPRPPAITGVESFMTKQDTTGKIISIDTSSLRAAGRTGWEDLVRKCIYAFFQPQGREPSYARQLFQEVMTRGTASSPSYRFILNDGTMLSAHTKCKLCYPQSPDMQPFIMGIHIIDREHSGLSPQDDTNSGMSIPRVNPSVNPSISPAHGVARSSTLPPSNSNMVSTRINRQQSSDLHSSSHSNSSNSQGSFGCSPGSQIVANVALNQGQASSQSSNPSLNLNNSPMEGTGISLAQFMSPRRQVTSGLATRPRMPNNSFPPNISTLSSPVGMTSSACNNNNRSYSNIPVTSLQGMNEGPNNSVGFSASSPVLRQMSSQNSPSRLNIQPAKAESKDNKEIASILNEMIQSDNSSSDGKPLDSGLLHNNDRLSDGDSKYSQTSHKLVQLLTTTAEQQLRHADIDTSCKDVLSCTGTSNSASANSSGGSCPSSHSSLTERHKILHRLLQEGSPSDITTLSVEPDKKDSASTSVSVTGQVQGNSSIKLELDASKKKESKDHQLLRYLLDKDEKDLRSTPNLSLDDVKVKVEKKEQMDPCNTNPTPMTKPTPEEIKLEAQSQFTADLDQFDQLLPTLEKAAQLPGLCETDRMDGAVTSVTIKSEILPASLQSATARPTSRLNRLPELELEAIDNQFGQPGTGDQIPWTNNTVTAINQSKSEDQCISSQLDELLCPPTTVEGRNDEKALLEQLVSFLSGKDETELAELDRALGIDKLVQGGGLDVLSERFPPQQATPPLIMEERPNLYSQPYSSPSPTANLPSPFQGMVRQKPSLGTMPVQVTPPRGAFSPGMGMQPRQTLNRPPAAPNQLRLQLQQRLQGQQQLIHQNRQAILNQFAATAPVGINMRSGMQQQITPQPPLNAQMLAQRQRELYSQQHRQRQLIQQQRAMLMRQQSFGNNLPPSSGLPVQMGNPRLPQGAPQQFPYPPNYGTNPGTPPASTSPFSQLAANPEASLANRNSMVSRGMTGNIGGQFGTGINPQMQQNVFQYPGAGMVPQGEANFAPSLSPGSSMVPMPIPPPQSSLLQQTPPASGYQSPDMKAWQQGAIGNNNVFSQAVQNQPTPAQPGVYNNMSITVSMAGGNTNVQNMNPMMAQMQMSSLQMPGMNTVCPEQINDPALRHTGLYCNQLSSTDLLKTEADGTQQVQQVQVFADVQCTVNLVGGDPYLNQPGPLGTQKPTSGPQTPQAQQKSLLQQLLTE

[3] = molecular target: Peroxisome proliferator-activated receptor gamma/Nuclear receptor coactivator 2 (Homo sapiens, UniProt P37231); assay type: functional;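 also: agonist potency for raising coactivator recruitment to the receptor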
[4] = molecular target: Cytochrome P450 2C9 (Homo sapiens, UniProt P11712)
[5] = molecular target: Cytochrome P450 2C19 (Homo sapiens, UniProt P33261); assay: Cytochrome panel assay with activity outcomes. Panel member name: p450-cyp2c19 Compounds with AC50 equal or less than 10 uM are considered active; assay type: functional; settings: read-out: AC50
[6] = molecular target: Eukaryotic translation initiation factor 4E (Mus musculus, UniProt P63073); assay: eIF4E–eIF4G protein interaction inhibitors, dose response, biochemical, TR-FRET (AID 855); assay type: functional;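 also: potency for disrupting eIF4E binding to eIF4GI seen as loss of FRET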
Sequence of Eukaryotic translation initiation factor 4E (P63073 whole entry): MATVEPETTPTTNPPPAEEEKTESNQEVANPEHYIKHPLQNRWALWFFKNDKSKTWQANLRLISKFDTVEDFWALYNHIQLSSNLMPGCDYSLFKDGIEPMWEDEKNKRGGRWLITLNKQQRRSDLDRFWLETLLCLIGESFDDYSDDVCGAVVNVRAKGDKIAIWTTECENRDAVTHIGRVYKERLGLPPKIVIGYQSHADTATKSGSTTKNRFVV

[7] = molecular target: T1, Mannose-6-phosphate isomerase (Homo sapiens, UniProt P34949); assay: human PMI inhibitors, high substrate, primary screen, biochemical, fluorescence intensity, high mannose 6-phosphate (AID 1220)
T1 sequence (P34949 whole entry): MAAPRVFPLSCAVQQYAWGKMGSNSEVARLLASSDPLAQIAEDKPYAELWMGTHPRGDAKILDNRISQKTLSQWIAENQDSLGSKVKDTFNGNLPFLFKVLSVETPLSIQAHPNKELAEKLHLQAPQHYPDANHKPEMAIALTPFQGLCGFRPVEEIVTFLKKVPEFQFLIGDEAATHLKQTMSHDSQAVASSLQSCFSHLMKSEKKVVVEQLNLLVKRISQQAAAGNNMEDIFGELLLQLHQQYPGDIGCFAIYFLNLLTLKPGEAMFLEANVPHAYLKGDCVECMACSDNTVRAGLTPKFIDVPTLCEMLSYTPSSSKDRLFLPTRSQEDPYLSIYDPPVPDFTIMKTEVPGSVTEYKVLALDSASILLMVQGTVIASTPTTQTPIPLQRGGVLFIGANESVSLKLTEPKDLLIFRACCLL

[8] = molecular target: T2, Caspase-6 (Homo sapiens, UniProt P55212); assay: human caspase-6 inhibitors, dose response, biochemical, VEID-R110 fluorescence, cherry-pick (AID 720632)
T2 sequence (P55212 whole entry): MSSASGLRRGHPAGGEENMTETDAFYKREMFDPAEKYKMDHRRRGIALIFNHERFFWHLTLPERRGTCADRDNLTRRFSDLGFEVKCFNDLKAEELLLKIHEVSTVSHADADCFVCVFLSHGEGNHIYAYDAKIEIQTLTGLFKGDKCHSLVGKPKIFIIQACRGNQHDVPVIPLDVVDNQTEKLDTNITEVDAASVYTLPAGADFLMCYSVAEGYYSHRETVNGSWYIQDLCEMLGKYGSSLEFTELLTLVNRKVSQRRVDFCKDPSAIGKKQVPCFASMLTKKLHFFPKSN

[9] = cytotoxicity toward DRD oncogenic fibroblasts, dose response, cell-based, non-viral oncogenic, luminescence (AID 1934); assay type: functional; settings: Homo sapiens
[10] = tested on: BJ; assay: cells; assay type: functional, cell-based; settings: Homo sapiens
[11] = tested on: BJ; assay: cytotoxicity toward BJ-TERT-LT-ST fibroblasts, dose response, cell-based, RAS-independent, luminescence (AID 1935); assay type: functional; settings: Homo sapiens;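 also: BJ fibroblasts immortalized with TERT plus LT and ST oncogenes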
[12] = tested on: BJ; assay: cytotoxicity toward BJ-TERT fibroblasts, dose response, cell-based, RAS-independent, luminescence (AID 1933); assay type: functional; settings: Homo sapiens
[13] = molecular target: T3, Heat shock factor protein 1 (Mus musculus, UniProt P38532); assay: HSF1 potentiators in luciferase reporter cells, confirmation, cell-based, NIH3T3, luminescence, dose retest (AID 435004); assay type: functional;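 also: stress induced by proteasome inhibitor MG132 added 30 min after compound; luciferase reporter driven by HSF1 response element in NIH3T3 cells; actives raise luminescence as potentiators of the MG132 stress response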
T3 sequence (P38532 whole entry): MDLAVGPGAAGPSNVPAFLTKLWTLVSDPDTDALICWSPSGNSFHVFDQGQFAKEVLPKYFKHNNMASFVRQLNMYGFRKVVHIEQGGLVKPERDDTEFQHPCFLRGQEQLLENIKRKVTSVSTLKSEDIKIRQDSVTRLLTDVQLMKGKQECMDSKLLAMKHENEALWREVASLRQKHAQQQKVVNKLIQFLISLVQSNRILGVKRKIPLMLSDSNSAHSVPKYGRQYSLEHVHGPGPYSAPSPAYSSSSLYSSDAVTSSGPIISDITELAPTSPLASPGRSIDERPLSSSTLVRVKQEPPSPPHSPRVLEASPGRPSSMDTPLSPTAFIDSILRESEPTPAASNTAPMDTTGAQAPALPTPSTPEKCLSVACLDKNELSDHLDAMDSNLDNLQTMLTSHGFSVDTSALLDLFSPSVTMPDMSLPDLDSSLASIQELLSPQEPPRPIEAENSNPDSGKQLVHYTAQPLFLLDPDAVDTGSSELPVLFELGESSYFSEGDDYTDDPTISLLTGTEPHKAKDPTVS

[14] = molecular target: Beta-galactosidase (Escherichia coli, UniProt Q8VNN2); assay: Dose response counterscreen for EBI2 assay utilizing the enzyme, b-galactosidase.; assay type: functional
[15] = molecular target: SWI/SNF-related matrix-associated actin-dependent regulator of chromatin subfamily A member 2 (Homo sapiens, UniProt P51531); assay: Luminescence-based cell-based high throughput dose response assay to identify activators of the function of SWI/SNF related, matrix associated, actin dependent regulator of chromatin, subfamily a, member 2 (SMARCA2, BRM).; assay type: functional
[16] = Counterscreen for activators of the function of SWI/SNF related, matrix associated, actin dependent regulator of chromatin, subfamily a, member 2 (SMARCA2, BRM): Luminescence-based cell-based high throughput dose response assay to identify non-selective compounds using the VP16 reporter assay.; assay type: functional
[17] = molecular target: Luciferin 4-monooxygenase (Photinus pyralis, UniProt P08659); assay: firefly luciferase enzyme inhibitors, dose response, biochemical, luminescence (AID 1891)
Sequence of Luciferin 4-monooxygenase (P08659 whole entry): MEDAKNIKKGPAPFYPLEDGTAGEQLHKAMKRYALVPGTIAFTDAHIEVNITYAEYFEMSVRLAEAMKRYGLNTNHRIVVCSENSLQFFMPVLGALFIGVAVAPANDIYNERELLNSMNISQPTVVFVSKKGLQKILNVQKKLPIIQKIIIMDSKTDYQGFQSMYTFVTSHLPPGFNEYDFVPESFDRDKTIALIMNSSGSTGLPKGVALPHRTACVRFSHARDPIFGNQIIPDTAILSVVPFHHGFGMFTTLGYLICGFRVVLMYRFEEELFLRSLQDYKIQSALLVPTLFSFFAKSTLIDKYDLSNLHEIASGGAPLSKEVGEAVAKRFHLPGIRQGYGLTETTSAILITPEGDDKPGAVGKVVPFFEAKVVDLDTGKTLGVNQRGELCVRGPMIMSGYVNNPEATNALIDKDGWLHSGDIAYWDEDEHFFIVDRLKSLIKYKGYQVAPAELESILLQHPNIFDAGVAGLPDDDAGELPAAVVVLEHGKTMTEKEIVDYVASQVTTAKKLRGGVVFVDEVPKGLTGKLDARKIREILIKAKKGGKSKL

[18] = Luminescence Cell-Based Dose Confirmation HTS to Identify Inhibitors of Platelet Dense Granule Release. [Related pubchem assays: 1663 (Primary HTS), 1678 (Summary of Project)]; assay type: functional
[19] = molecular target: T4, Short transient receptor potential channel 4 (Mus musculus, UniProt Q9QUQ5); assay: mouse TRPC4 channel inhibitors, dose response, cell-based, HEK293 TRPC4/mu-opioid, Fluo-4 calcium (AID 434942); assay type: functional;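 also: potency of inhibitors blocking the TRPC4 calcium response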
T4 sequence (Q9QUQ5 whole entry): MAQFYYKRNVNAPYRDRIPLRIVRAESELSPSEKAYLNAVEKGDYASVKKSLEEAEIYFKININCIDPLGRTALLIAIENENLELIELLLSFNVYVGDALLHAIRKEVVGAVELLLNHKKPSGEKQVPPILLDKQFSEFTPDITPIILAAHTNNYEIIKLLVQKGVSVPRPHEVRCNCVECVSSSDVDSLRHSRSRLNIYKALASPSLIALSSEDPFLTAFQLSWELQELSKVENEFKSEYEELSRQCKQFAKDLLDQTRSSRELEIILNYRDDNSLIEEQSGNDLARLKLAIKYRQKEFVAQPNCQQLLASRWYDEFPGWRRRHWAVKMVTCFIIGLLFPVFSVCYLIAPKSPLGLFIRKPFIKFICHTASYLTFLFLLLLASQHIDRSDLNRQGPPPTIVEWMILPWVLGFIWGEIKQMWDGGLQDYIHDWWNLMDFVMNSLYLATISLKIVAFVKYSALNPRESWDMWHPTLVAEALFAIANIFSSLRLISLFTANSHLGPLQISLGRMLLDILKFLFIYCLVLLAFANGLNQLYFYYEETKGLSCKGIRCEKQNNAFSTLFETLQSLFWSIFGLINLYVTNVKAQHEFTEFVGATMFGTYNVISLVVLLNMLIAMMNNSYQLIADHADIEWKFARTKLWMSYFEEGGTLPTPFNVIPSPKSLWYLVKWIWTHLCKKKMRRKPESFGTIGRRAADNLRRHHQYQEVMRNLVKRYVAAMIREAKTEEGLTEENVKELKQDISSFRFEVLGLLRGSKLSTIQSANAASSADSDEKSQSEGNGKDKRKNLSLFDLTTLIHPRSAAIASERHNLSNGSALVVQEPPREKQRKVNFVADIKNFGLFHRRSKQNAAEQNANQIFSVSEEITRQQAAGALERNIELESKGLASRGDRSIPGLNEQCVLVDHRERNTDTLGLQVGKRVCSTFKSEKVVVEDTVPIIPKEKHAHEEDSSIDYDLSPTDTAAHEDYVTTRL

[20] = inhibitors of firefly luciferase expression or activity, dose response, H4 neuroglioma cells, luminescence (AID 1990); assay type: functional, cell-based
[21] = cytotoxicity in HEK-293T cells, dose response, cytotoxicity control for TCR NF-kB inhibitor project, luminescence, T-cell screen hits (AID 489026); assay type: functional, cell-based;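 also: cells exposed to compound about 14 hours before the viability readout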
[22] = inhibitors of SNCA 5'UTR-driven reporter translation, confirmation, H4 neuroglioma cells, luminescence (AID 1988); assay type: functional, cell-based
[23] = Luminescence Cell-Based Dose Response HTS to Identify Inhibitors of 5'UTR Stem-Loop Driven Prion Protein mRNA Translation in H4 Neuroglioblastoma Cells. [Related pubchem assays: 1827 (Project Summary), 1813 (Primary HTS)]; assay type: functional
[24] = cytotoxicity in HEK-293T cells, dose response, cytotoxicity control for BCR NF-kB inhibitor project, luminescence, B-cell screen hits (AID 489021); assay type: functional, cell-based;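 also: HEK-293T cells carrying an NF-kB luciferase reporter; cells exposed to compound for about 14 hours before viability readout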
[25] = inhibitors of PGC1a acetylation in cells, dose response, cell-based, cherry-picked samples (AID 720514); assay type: functional;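 also: potency may reflect raised or lowered acetylation signal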

Sequence of Peroxisome proliferator-activated receptor gamma/Nuclear receptor coactivator 3 (P37231 whole entry): as the sequence (P37231 whole entry) above
Sequence of Peroxisome proliferator-activated receptor gamma/Nuclear receptor coactivator 3 (Q9Y6Q9 whole entry, further chain): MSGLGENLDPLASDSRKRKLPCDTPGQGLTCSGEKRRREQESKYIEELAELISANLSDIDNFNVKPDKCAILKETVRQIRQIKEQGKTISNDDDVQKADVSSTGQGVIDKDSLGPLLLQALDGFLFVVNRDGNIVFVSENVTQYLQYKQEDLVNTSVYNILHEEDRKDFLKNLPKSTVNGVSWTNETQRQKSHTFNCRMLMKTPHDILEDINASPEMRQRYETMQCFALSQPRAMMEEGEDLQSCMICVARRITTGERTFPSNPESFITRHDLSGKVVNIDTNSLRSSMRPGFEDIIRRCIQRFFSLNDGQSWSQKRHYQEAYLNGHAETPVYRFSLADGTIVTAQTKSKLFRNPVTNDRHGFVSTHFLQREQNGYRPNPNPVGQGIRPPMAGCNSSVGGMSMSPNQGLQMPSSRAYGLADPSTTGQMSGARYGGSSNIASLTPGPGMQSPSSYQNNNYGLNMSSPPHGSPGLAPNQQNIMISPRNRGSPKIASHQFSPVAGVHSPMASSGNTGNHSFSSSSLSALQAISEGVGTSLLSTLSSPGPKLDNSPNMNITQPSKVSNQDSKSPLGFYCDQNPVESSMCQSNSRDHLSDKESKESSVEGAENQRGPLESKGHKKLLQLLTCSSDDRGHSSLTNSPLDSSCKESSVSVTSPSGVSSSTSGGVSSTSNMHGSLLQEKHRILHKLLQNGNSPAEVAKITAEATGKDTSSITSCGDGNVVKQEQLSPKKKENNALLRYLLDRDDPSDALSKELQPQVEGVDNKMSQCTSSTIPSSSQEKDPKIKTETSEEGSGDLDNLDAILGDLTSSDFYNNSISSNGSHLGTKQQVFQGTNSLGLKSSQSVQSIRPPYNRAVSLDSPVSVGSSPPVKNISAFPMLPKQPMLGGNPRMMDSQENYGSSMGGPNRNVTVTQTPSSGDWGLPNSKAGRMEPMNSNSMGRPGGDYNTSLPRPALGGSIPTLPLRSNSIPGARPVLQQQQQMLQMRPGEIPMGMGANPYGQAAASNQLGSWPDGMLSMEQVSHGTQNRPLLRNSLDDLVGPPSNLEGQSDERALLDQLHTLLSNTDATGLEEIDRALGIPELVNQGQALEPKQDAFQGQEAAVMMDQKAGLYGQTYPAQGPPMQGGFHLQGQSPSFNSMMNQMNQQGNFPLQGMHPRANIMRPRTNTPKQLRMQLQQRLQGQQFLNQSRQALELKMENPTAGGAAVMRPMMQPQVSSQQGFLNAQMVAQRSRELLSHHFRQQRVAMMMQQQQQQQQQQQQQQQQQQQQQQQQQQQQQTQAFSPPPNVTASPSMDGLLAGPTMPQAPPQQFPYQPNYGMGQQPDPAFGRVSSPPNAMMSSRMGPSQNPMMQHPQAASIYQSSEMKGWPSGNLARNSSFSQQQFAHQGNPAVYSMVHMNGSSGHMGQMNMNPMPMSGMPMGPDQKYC

## Clc1cccc2sc(N3CCN(c4ccccc4)CC3)nc12
[1]
  EC50: > 79.4 µM (not active)
[2]
  EC50: > 79.4 µM (not active)
[3]
  EC50: > 79.4 µM (not active)

## CC(C)CC(=O)N1CCC(N2CCN(c3ccccc3)CC2)CC1
[4]
  AC50: 14.1 µM (inconclusive)
[5]
  AC50: 15.8 µM (inconclusive)
[6]
  IC50: > 64 µM (inactive)

## Cc1ccc2cc(N)ccc2n1
[7]
  IC50: > 50 µM (not active)
[8]
  AC50: 14.2 µM (active)

## O=C(c1cccc([N+](=O)[O-])c1)c1ccccn1
[9]
  EC50: > 150 µM (not active)
[10]
  EC50: > 150 µM (not active)
[11]
  EC50: > 150 µM (not active)
[12]
  EC50: > 150 µM (not active)

## Cc1ccc(C(=O)CNc2ccc(Cl)cc2)cc1
[13]
  EC50: > 260 µM (inactive)
[14]
  IC50: 130 µM (inactive)
[15]
  EC50: > 91.2 µM (inactive)
[16]
  EC50: > 91.2 µM (inactive)

## O=C(Cc1sc(-c2ccccc2Cl)nc1-c1ccccc1)Nc1ccccc1
[1]
  EC50: 11.3 µM (not active)
[2]
  EC50: 10 µM (not active)
[3]
  EC50: 6.82 µM (active)

## CC1(C)Cc2c(sc3nc(NCCN4CCOCC4)n4ncnc4c23)CO1
[17]
  EC50: > 112 µM (not active)
[6]
  IC50: > 64 µM (inactive)
[18]
  EC50: 10.8 µM (active)

## Cc1ccccc1N(C(=O)c1snc(C(N)=O)c1N)C(C(=O)NC1CCCC1)c1ccco1 (stereo unspecified)
[19]
  EC50: 2.99 µM (active)

## CN(C)/C=C1\Oc2ccc3ccccc3c2C1=O
[7]
  IC50: > 50 µM (not active)

## CN(CC(=O)Nc1ccc(N2CCOCC2)cc1)Cc1c(O)ccc2ccccc12
[7]
  IC50: > 50 µM (not active)

## CC1CCCN(c2c3c(nc4ccccc24)CCCC3)C1 (stereo unspecified)
[19]
  EC50: 1.33 µM (active)

## COc1ccc(-n2nnnc2-c2cccc(OC)c2)cc1
[20]
  EC50: 4.68 µM (inconclusive)
[21]
  IC50: > 80 µM (inactive)
[9]
  EC50: 2.04 µM (active)
[10]
  EC50: 109 µM (active)
[22]
  EC50: 0.824 µM (inconclusive)
[11]
  EC50: 2.71 µM (active)
[12]
  EC50: 8.48 µM (active)
[23]
  EC50: 11.6 µM (active)

## Cc1cc(OCC(=O)NC2CC2)c2c(C)c(C)c(=O)oc2c1
[24]
  IC50: > 80 µM (inactive)

## Cc1ccc(/C=C2\SC(=S)N(CCC(=O)NNC(=O)c3ccncc3)C2=O)cc1
[24]
  IC50: > 80 µM (inactive)

## Cc1cc(OCC(=O)Nc2ccc(CCO)cc2)c2c(C)c(C)c(=O)oc2c1
[24]
  IC50: > 80 µM (inactive)

## C[C@@H]1CN([C@@H](C)CO)C(=O)c2cc(NC(=O)CCCN(C)C)ccc2O[C@@H](C)CCCCO[C@@H]1CN(C)Cc1ccc(C(F)(F)F)cc1
[25]
  AC50: 37.9 µM (active)

## C[C@H](CO)N1C[C@H](C)[C@H](CN(C)Cc2ccccc2)Oc2cc(Br)ccc2S1(=O)=O
[25]
  AC50: 25.8 µM (active)

## Fc1cccc(-c2ccc([C@@H]3[C@@H]4CN(Cc5nccs5)C[C@H]3N4)cc2)c1
[25]
  AC50: 17.6 µM (active)

## O=C(C[C@H]1CC[C@@H](NC(=O)c2ccccc2)[C@H](CO)O1)Nc1ccc(-c2ccccc2)cc1
[25]
  AC50: 4.76 µM (active)

## COc1ccc(OC)c2c1s/c(=N\C(=O)C(C)(C)C)n2C
[1]
  EC50: > 79.4 µM (not active)
[2]
  EC50: > 79.4 µM (not active)
[3]
  EC50: > 79.4 µM (not active)

## CCOc1cc(/C=N\Nc2nc(Nc3ccccc3)nc(N3CCOCC3)n2)ccc1OC(=O)c1ccco1
[24]
  IC50: > 80 µM (inactive)

## Cc1cc(N/N=C/c2ccccc2F)c2ccccc2n1
[19]
  EC50: 2.66 µM (active)
